In one assay the target is T1, PARP in C41 cells (Homo sapiens, UniProt P09874).
T1 construct: endogenous in cells; host or cells: C41 cells
The assay can be described thus: Cellular PARP assay (PAR formation after H2O2 DNA damage, anti-PAR immunofluorescence). It is filed as cell-based. The note with it: compound 30 minutes, then 1 mM H2O2 for 10 minutes, FITC signal normalized with DAPI, read-out: Cell, EC50.

For another assay, the target named is T2, PARP-1 (Homo sapiens, UniProt P09874).
T2 construct: purchased Trevigen (Gaithersburg, Md.); host or cells: E. coli
The assay can be described thus: PARP1 assay (inhibition of PARP, [3H]-NAD+ / biotinylated histone H1, FlashPlate scintillation). It is filed as biochemical.

[1] abbreviates: recombinant human PARP, 1 nM enzyme, 1.5 μM [3H]-NAD+, inhibition curves at various substrate concentrations, read-out: PARP-1 (Ki).

Read-outs that look alike come from different tables or passages of the source.

T2 sequence (P09874 whole entry): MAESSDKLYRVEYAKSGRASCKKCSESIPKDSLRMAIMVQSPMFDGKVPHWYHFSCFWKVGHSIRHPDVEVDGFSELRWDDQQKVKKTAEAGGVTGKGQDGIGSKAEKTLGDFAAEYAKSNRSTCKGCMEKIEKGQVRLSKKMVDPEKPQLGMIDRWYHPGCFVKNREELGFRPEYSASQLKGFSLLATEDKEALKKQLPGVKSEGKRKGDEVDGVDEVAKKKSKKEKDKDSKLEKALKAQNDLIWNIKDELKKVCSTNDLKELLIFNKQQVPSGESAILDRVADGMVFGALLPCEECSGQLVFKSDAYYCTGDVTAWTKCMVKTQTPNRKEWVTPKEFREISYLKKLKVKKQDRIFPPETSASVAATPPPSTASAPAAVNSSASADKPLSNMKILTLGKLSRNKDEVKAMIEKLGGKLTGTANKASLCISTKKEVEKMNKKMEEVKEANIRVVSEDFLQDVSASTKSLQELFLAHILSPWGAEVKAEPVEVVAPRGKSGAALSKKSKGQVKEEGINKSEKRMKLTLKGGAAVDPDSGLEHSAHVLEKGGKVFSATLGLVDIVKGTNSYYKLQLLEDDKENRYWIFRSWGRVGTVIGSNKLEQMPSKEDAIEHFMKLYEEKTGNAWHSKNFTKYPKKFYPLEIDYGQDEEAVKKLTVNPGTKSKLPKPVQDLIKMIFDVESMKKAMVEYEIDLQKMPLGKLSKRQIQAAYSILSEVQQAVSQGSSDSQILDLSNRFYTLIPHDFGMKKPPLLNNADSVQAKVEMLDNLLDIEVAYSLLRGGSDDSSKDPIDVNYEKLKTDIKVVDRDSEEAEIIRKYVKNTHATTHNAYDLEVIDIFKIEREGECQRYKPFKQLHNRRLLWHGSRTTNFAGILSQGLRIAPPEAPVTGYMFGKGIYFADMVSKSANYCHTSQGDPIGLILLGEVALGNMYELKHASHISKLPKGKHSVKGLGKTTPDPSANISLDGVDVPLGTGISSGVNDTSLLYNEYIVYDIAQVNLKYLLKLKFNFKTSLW
T1 sequence (P09874 whole entry): as above
Procedure for PARP in C41 cells: C41 cells were treated with a compound of this invention for 30 minutes in 96 well plate. PARP was then activated by damaging DNA with 1 mM H2O2 for 10 minutes. The cells were then washed with ice-cold PBS once and fixed with pre-chilled methanol:acetone (7:3) at −20° C. for 10 minutes. After air-drying, the plates were rehydrated with PBS and blocked 5% non-fat dry milk in PBS-TWEEN20® (Sigma, St. Louis, Mo.) (0.05%) (blocking solution) for 30 minutes at room temperature. The cells were incubated with anti-PAR antibody 10H (1:50) in Blocking solution at 37° C. for 60 minutes followed by washing with PBS-TWEEN20® 5 times, and incubation with goat anti-mouse fluorescein 5(6)-isothiocyanate-coupled antibody (1:50) and 1 μg/ml 4′,6-diamidino-2-phenylindole (DAPI) in blocking solution at 37° C. for 60 minutes. […] The PARP activity (FITC signal) was normalized with cell numbers (DAPI).
Procedure for PARP-1: Nicotinamide[2,5′,8-3H]adenine dinucleotide and strepavidin SPA beads were purchased from Amersham Biosiences (Buckinghamshire, U.K.). […] NAD^+, histone, aminobenzamide, 3-amino benzamide and Calf Thymus DNA (dcDNA) were purchased from Sigma (St. Louis, Mo.). […] Biotinylated histone H1 was prepared by treating the protein with Sulfo-NHS-LC-Biotin from Pierce (Rockford, Ill.). The biotinylation reaction was conducted by slowly and intermittently adding 3 equivalents of 10 mM Sulfo-NHS-LC-Biotin to 100 μM Histone H1 in phosphate-buffered saline, pH 7.5, at 4° C. with gentle vortexing over 1 minute followed by subsequent 4° C. incubation for 1 hour. Streptavidin coated (FLASHPLATE PLUS®) microplates were purchased from Perkin Elmer (Waltham, Mass.).
PARP1 assay was conducted in PARP assay buffer containing 50 mM Tris pH 8.0, 1 mM DTT, 4 mM MgCl2. […] Auto reactions utilizing SPA bead-based detection were carried out in 100 μL volumes in white 96 well plates. Reactions were initiated by adding 50 μl of 2× NAD^+ substrate mixture to 50 μL of 2× enzyme mixture containing PARP and DNA. […] 170 μL of the stopped reaction mixtures were transferred to streptavidin FLASHPLATE PLUS®, incubated for 1 hour, and counted using a TOPCOUNT® microplate scintillation counter from Perkin Elmer (Waltham, Mass.).

As for `O=C(c1ccc2c(c1)[nH]c(=O)c1cccn12)N1CCCCC1` [Example 85, 7-(piperidin-1-ylcarbonyl)pyrrolo[1,2-a]quinoxalin-4(5H)-one], the half-maximal effective concentration (EC50) (commonly the concentration at which the effect is half-maximal) at PARP in C41 cells turned out to be 23 nM. The Ki (usually a dissociation constant, usually derived from enzyme kinetics or from competition with a known ligand) at PARP-1 (setting [1]) was found to be 16 nM.

Regarding `O=c1[nH]c2ccc(CNC3CC3)cc2n2cccc12` [Example 12, 8-((cyclopropylamino)methyl)pyrrolo[1,2-a]quinoxalin-4(5H)-one], the EC50 on PARP in C41 cells is 13 nM. Besides, at PARP-1, the Ki turned out to be 32 nM. Consider `CN1CCN(CCCNC(=O)c2ccc3c(c2)[nH]c(=O)c2cccn23)CC1` [Example 66, N-[3-(4-methylpiperazin-1-yl)propyl]-4-oxo4,5-dihydropyrrolo[1,2-a]quinoxaline-7-carboxamide], for which the concentration giving a half-maximal response (EC50) on PARP in C41 cells was determined as 32 nM. Further, on PARP-1 (setting [1]), the Ki was 23 nM.

In the case of `CC(C)NCc1ccc2[nH]c(=O)c3cccn3c2c1` [Example 13, 8-((isopropylamino)methyl)pyrrolo[1,2-a]quinoxalin-4(5H)-one], at PARP in C41 cells, the EC50 was 37 nM. In addition, the Ki on PARP-1 (setting [1]) came to 44 nM. As for `O=c1[nH]c2cc(CN3CCCC3)ccc2n2cccc12` [Example 7, 7-(pyrrolidin-1-ylmethyl)pyrrolo[1,2-a]quinoxalin-4(5H)-one], the EC50 at PARP in C41 cells was found to be 5.4 nM. At PARP-1, this compound returned a Ki of 6 nM. In the case of `O=C1NCc2cc(CNCC3CCCCC3)ccc2-n2cccc21` [Example 31, 8-(((cyclohexylmethyl)amino)methyl)-5,6-dihydro-4H-pyrrolo[1,2-a][1,4]benzodiazepin-4-one], on PARP-1 (setting [1]), the Ki was determined as 1490 nM.

Regarding `O=c1[nH]c2cc(CNC3CCCCC3)ccc2n2cccc12` [Example 1, 7-((cyclohexylamino)methyl)pyrrolo[1,2-a]quinoxalin-4(5H)-one], the Ki at PARP-1 (setting [1]) came out at 474 nM. Still for that read-out and setting: next, `O=C(Nc1ccc(N2CCN(Cc3ccccc3)CC2)cc1)c1ccc2c(c1)[nH]c(=O)c1cccn12` [Example 83, N-[4-(4-benzylpiperazin-1-yl)phenyl]-4-oxo4,5-dihydropyrrolo[1,2-a]quinoxaline-7-carboxamide]: 58 nM. On the same count and under the same terms, next, `CCS(=O)(=O)N(Cc1ccc2[nH]c(=O)c3cccn3c2c1)C1CCC1` [Example 53, N-cyclobutyl-N-[(4-oxo-4,5-dihydropyrrolo[1,2-a]quinoxalin-8-yl)methyl]ethanesulfonamide]: 917 nM; `CC(C)N(C)Cc1ccc2c(c1)NC(=O)C1CCCCN21` (stereo not drawn) [Example 41, 3-{[isopropyl(methyl)amino]methyl}-7,8,9,10-tetrahydro-5H-pyrido[1,2-a]quinoxalin-6(6aH)-one]: 284 nM; `O=C1Nc2cc(CN3CCCCC3)ccc2N2CCCC12` (stereo not drawn) [Example 45, 7-(piperidin-1-ylmethyl)-1,2,3,3a-tetrahydropyrrolo[1,2-a]quinoxalin-4(5H)-one]: 146 nM. Same read-out and setting: next, `O=C(NCCCN1CCOCC1)c1ccc2c(c1)[nH]c(=O)c1cccn12` [Example 63, N-(3-morpholin-4-ylpropyl)-4-oxo-4,5-dihydropyrrolo[1,2-a]quinoxaline-7-carboxamide]: 211 nM; `O=C1NCc2cc(CN3CCCC3)ccc2-n2cccc21` [Example 27, 8-(pyrrolidin-1-ylmethyl)-5,6-dihydro-4H-pyrrolo[1,2-a][1,4]benzodiazepin-4-one]: 1120 nM; `CN(C)CCNC(=O)c1ccc2c(c1)[nH]c(=O)c1cccn12` [Example 68, N-[2-(dimethylamino)ethyl]-4-oxo-4,5-dihydropyrrolo[1,2-a]quinoxaline-7-carboxamide]: 1630 nM.

In the case of `CN(C)Cc1ccc2c(c1)NC(=O)C1CCCN21` (stereo not drawn) [Example 44, 7-[(dimethylamino)methyl]-1,2,3,3a-tetrahydropyrrolo[1,2-a]quinoxalin-4(5H)-one], the EC50 at PARP in C41 cells turned out to be 143 nM. Moreover, the Ki on PARP-1 was determined as 60 nM. For `O=C(NCC(=O)N1CCCC1)c1ccc2c(c1)[nH]c(=O)c1cccn12` [Example 73, 4-oxo-N-(2-oxo-2-(pyrrolidin-1-yl)ethyl)-4,5-dihydropyrrolo[1,2-a]quinoxaline-7-carboxamide], the Ki at PARP-1 (setting [1]) amounted to 874 nM.

As for `O=c1[nH]c2ccc(CNCc3ccccc3)cc2n2cccc12` [Example 20, 8-((benzylamino)methyl)pyrrolo[1,2-a]quinoxalin-4(5H)-one], the Ki on PARP-1 (setting [1]) came out at 131 nM. On the same count and under the same terms, next, `O=C(NCCCN1CCCCC1)c1ccc2c(c1)[nH]c(=O)c1cccn12` [Example 70, 4-oxo-N-(3-piperidin-1-ylpropyl)-4,5-dihydropyrrolo[1,2-a]quinoxaline-7-carboxamide]: 139 nM; `O=C(Nc1nccs1)c1ccc2c(c1)[nH]c(=O)c1cccn12` [Example 84, 4-oxo-N-1,3-thiazol-2-yl-4,5-dihydropyrrolo[1,2-a]quinoxaline-7-carboxamide]: 98 nM. On the same count and under the same terms, next, `CN(C)C1CCC(NCc2ccc3c(c2)[nH]c(=O)c2cccn23)CC1` (stereo not drawn) [Example 72, 7-({[4-(dimethylamino)cyclohexyl]amino}methyl)pyrrolo[1,2-a]quinoxalin-4(5H)-one]: 163 nM; `CC(C)NCc1ccc2c(c1)NC(=O)C1CCCCN21` (stereo not drawn) [Example 38, 3-[(isopropylamino)methyl]-7,8,9,10-tetrahydro-5H-pyrido[1,2-a]quinoxalin-6(6aH)-one]: 340 nM; `CN(C)CCNCc1ccc2c(c1)[nH]c(=O)c1cccn12` [Example 65, 7-({[2-(dimethylamino)ethyl]amino}methyl)pyrrolo[1,2-a]quinoxalin-4(5H)-one]: 427 nM. Regarding `NC1CCN(Cc2ccc3c(c2)[nH]c(=O)c2cccn23)CC1` [Example 86, 7-[(4-aminopiperidin-1-yl)methyl]pyrrolo[1,2-a]quinoxalin-4(5H)-one], the EC50 on PARP in C41 cells was determined as 204 nM. For the same compound, the Ki on PARP-1 (setting [1]) is 35 nM. On to `O=c1[nH]c2ccc(CN3CCCCC3)cc2n2cccc12` [Example 19, 8-(piperidin-1-ylmethyl)pyrrolo[1,2-a]quinoxalin-4(5H)-one], for which the Ki on PARP-1 (setting [1]) was 47 nM.

For the compound `CC(C)NCc1ccc2c(c1)CNC(=O)c1cccn1-2` [Example 28, 8-((isopropylamino)methyl)-5,6-dihydro-4H-pyrrolo[1,2-a][1,4]benzodiazepin-4-one], on PARP-1 (setting [1]), the inhibition constant (Ki) stood at 1470 nM. The same measure, in the same setting: next, `O=c1[nH]c2cc(CNCCCN3CCCCC3)ccc2n2cccc12` [Example 69, 7-{[(3-piperidin-1-ylpropyl)amino]methyl}pyrrolo[1,2-a]quinoxalin-4(5H)-one]: 129 nM; `O=C1Nc2cc(CN3CCCCC3)ccc2N2CCCCC12` (stereo not drawn) [Example 37, 3-(piperidin-1-ylmethyl)-7,8,9,10-tetrahydro-5H-pyrido[1,2-a]quinoxalin-6(6aH)-one]: 98 nM; `O=c1[nH]c2cc(CN3CCCC3)ccc2n2ccnc12` [Example 21, 7-(pyrrolidin-1-ylmethyl)imidazo[1,2-a]quinoxalin-4(5H)-one]: 280 nM. The same measure, in the same setting: next, `CCN(C)Cc1ccc2c(c1)NC(=O)C1CCCN21` (stereo not drawn) [Example 46, 7-{[ethyl(methyl)amino]methyl}-1,2,3,3a-tetrahydropyrrolo[1,2-a]quinoxalin-4(5H)-one]: 130 nM. As to `CN1CCN(Cc2ccc3c(c2)CNC(=O)c2cccn2-3)CC1` [Example 29, 8-((4-methylpiperazin-1-yl)methyl)-5,6-dihydro-4H-pyrrolo[1,2-a][1,4]benzodiazepin-4-one], on PARP-1 (setting [1]), the inhibitory constant (Ki) worked out at 1500 nM.

For the compound `O=c1[nH]c2ccc(CNC3CCC3)cc2n2cccc12` [Example 16, 8-((cyclobutylamino)methyl)pyrrolo[1,2-a]quinoxalin-4(5H)-one], on PARP-1 (setting [1]), the Ki amounted to 51 nM. Same read-out and setting: next, `O=C1Nc2cc(CNC3CCCCC3)ccc2N2CCCCC12` (stereo not drawn) [Example 36, 3-[(cyclohexylamino)methyl]-7,8,9,10-tetrahydro-5H-pyrido[1,2-a]quinoxalin-6(6aH)-one]: 3490 nM.

The record behind these values is US7790721B2, “Pyrroloquinoxalinone inhibitors of poly(ADP-ribose)polymerase” (Abbott Laboratories, priority 2006, dated 2010).
